Like-named read-outs stand apart in the source and are kept apart here.
Legend:
[1] = biological target: T1, PTG CBM21 (residues 132–264) (Homo sapiens, UniProt Q9UQK1); assay: ITC titration of PTG CBM21 with β-cyclodextrin; assay type: binding; details: 25 °C
T1 sequence (Q9UQK1 132-264): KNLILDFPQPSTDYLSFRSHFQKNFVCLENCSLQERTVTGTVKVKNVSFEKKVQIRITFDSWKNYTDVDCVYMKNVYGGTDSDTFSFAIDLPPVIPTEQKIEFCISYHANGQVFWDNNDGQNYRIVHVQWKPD
Procedure: ITC experiments were performed using an ITC 200 microcalorimeter (Malvern Panalytical, UK) at 25 °C with a stirring speed of 750 rpm in 25 mM Hepes pH 7.4, 0.2 M NaCl, 5% glycerol with 180 s separating the injections. β-cyclodextrin was dissolved in the running buffer and two datasets were collected, one with PTG CBM21 concentration at 100 μM and β-cyclodextrin at 3 mM with 40 injections of 1 µl, the other at 200 μM and 4 mM, respectively, with 80 injections of 1 µl. A blank run with only the buffer was carried out. Data analysis was done with ORIGIN subtracting the blank titrations fitting ‘one site’ and ‘two sites’ models.

[2] = biological target: T2, PTG132-264 (CBM) (Homo sapiens, UniProt Q9UQK1); assay: GCI binding kinetics of β-cyclodextrin on immobilized PTG; details: 25 °C, 10 mM Hepes pH 7.2, 150 mM NaCl, 0.005% Tween 20, 1:3 dilutions from 500 µM
T2 sequence (Q9UQK1 132-264): T1 sequence (Q9UQK1 132-264)
Procedure: (§1) Grating-coupled interferometry (GCI) experiments were performed using the Creoptix WAVE system, a new generation instrument for the high-sensitivity kinetics and affinity analysis of label-free molecular interactions based on the waveguide interferometry technology. Waveguide interferometry exceeds the sensitivity levels of Surface Plasmon Resonance (SPR). […] GCI allows getting high resolution even at very low signal levels with low noise without artificial data averaging and reliable kinetics below 1 pg/mm^2. By the lower immobilization levels that are required, it avoids mass transport limitations. It covers the broadest kinetic range with the capability of analyzing of the ultra-fast transition times (i.e. 150 ms). It allows the reliable determination of off-rates of 5 s^–1 and even faster, enabling off-rate screening of weakly binding analytes. GCI can be applied to a wide range of pharmacological targets, with improved results on very low molecular weight compounds, to the dimensions of metal ions[56].
(§2) WAVE chips are composed of four channels or cells. Borate buffer (100 mM sodium borate pH 9.0, 1 M NaCl) was used for chip conditioning. […]
(§3) Supplementary Figure 3: Quantitative binding kinetics by GCI. […]

[3] = biological target: GM CBM21; details: cited from earlier work
Source text: (§4) The same two sugar-binding sites have been identified in the crystal structures of Rhizopus oryzae CBM21[13],[14]; site II is the primary binding site, while site I has been hypothesized to contribute to the binding of long-chain soluble polysaccharides and insoluble starch or to the relaxation and unwinding of helical amylose[15],[16].

[4] = biological target: R. oryzae CBM21; details: cited from earlier work
Source text: as §4

[5] = system: PP1; assay: Literature binding of GM constructs to PP1; details: GM 64–105 (KD 114 nM, ref 12) compared with the corresponding PTG peptide
[6] = biological target: T3, PP1 7-330 (Homo sapiens, UniProt P62136); assay: GCI binding kinetics of PTG-derived peptides on captured PP1; details: 25 °C, 6xHis-PP1 7-330 captured on NTA chip, peptide 1:2 dilutions from 300 nM
T3 construct: reversibly capturing 6xHis-tagged PP1^7-330; host or cells: E. coli BL21 (DE3) pGro7
T3 sequence (P62136 7-330): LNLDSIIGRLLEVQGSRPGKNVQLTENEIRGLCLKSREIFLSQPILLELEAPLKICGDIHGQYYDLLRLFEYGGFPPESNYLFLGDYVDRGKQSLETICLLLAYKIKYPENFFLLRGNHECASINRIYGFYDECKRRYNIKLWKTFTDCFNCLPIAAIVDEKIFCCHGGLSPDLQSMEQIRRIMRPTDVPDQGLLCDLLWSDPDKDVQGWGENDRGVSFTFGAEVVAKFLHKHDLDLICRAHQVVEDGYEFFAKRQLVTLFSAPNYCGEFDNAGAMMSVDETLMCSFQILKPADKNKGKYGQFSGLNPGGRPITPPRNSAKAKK
Procedure: as §1, §2, §3

[7] = 'two sites' model with stoichiometry fixed, average of two runs
[8] = 'two sites' model, average of two runs
[9] = 'two sites' model, average of two separate runs

OC[C@H]1O[C@@H]2O[C@H]3[C@H](O)[C@@H](O)[C@@H](O[C@H]4[C@H](O)[C@@H](O)[C@@H](O[C@H]5[C@H](O)[C@@H](O)[C@@H](O[C@H]6[C@H](O)[C@@H](O)[C@@H](O[C@H]7[C@H](O)[C@@H](O)[C@@H](O[C@H]8[C@H](O)[C@@H](O)[C@@H](O[C@H]1[C@H](O)[C@H]2O)O[C@@H]8CO)O[C@@H]7CO)O[C@@H]6CO)O[C@@H]5CO)O[C@@H]4CO)O[C@@H]3CO [β-cyclodextrin]
Kd ([1]; 25 mM Hepes pH 7.4, 0.2 M NaCl, 5% glycerol, 'one site' model, average of two separate runs, read-out: KD (KD1), 1 Site model): 59 ± 5 µM | ΔS1, 1 Site model ([1]; 'one site' model, average of two separate runs): -53 cal mol-1 K-1 | N (stoichiometry), 1 Site model ([1]; 'one site' model, average of two separate runs, listed as b-cyclodextrin): 1.09 | Kd ([1]; 'two sites' model with stoichiometry fixed (N 1.0 each site), average of two runs, read-out: KD1, 2 Sites fixed model, first site): 49 ± 4 µM | ΔH1, 2 Sites fixed model, first site [1, 7]: -24.6 ± 0.7 kcal/mol | ΔS1, 2 Sites fixed model, first site [1, 7]: -62 cal mol-1 K-1 | ΔS2, 2 Sites fixed model, second site [1, 7]: 21 cal mol-1 K-1 | Kd ([1]; 'two sites' model with stoichiometry fixed, average of two runs, spread ± 154, site spurious or ancillary, read-out: KD2, 2 Sites fixed model, second site): 346 µM | ΔH2, 2 Sites model, second site [1, 8]: -16 ± 2 kcal/mol | ΔS2, 2 Sites model, second site [1, 8]: -29 cal mol-1 K-1 | N2, 2 Sites model, second site ([1]; 'two sites' model, average of two runs, paper calls second-site stoichiometry inconsistent): 0.3 | Kd ([1]; 'two sites' model, average of two runs, second site judged inconsistent, read-out: KD2, 2 Sites model, second site): 3 ± 2 µM | N1, 2 Sites model, first site [1, 9]: 1.06 | ΔH1, 2 Sites model, first site [1, 9]: -18 ± 4 kcal/mol | ΔS1, 2 Sites model, first site [1, 9]: -40 cal mol-1 K-1 | Kd ([1]; 'two sites' model, average of two separate runs, read-out: KD1, 2 Sites model, first site): 63 ± 6 µM | Kd [2]: 37 ± 7 µM | Kd [3]: 8.2 µM | Kd [4]: 5.1 µM

GM peptide 64–105: GM (PPP1R3A) peptide 64–105, corresponding to PTG 84–131; literature comparator (VSFADSFGFNLVSVKEFDCWELPSASTTFDLGTDIFHTEEYV; UniProt Q16821 64-105, looked up, fragment)
times weaker PP1 binding than measured for PTG [5]: ~15 times

PTG81-132: extended PTG peptide, residues 81–132, including RVVF and SALK sequences; ProteoGenix SAS (AKKRVVFADSKGLSLTAIHVFSDLPEEPAWDLQFDLLDLNDISSALKHHEEK)
KD by GCI for binding to PP1 [6]: almost halved
